Drawing on PubChem BioAssay (NCI), this text covers TGI for five compounds.

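96-well plates; 48 h exposure; 5 concentrations. Endpoints by linear interpolation between flanking doses. Not reached: highest tested concentration assigned. The concentration for full growth arrest is given as TGI.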 Where only a bound is given, the exact number is not on record here.

What all share (experiment): NCI anticancer screen, dose series, 48 h
The subject of assay [1] is SK-MEL-5 melanoma.
In assay [2] the test system is HT29 colon.
Assay [3] concerns A498 renal.
Assay [4] has as its system T-47D breast.
Assay [5] relates to NCI-H226 lung.
Assay [6] concerns 786-0 renal.
For assay [7], the system named is SK-OV-3 ovarian.
The test system of assay [8] is NCI-H522 lung.
For assay [9], the system named is PC-3 prostate.
Assay [10] relates to SW-620 colon.

`COc1cccc2c1OCC1Cc3ccccc3OC21` (stereo not given): the TGI is 30.8 µM in assay [1]; more than 100 µM in assay [2]; more than 100 µM in assay [3]; more than 100 µM in [4]; more than 100 µM in [5]; more than 100 µM in assay [6]. The TGI in assay [7], in assay [8], in assay [9] and in assay [10] was more than 100 µM in each case.
As for `CCOC(=O)c1sc2ncnc(N)c2c1C`, the TGI in [1], in [2], in [3], in assay [4], in assay [5] and in assay [6] was more than 100 µM in each case. Further, the TGI in [7], in assay [8], in assay [9] and in [10] was more than 100 µM each time.
Turning to `COc1cc(C(O)c2ccc3c(c2)OCO3)cc(OC)c1OC` (stereo not given), the TGI in [1], in [2], in assay [3], in [4], in assay [5] and in [6] was more than 100 µM throughout. The TGI in assay [7], in [8], in assay [9] and in [10] was more than 100 µM in each case.
As to `C(=C\c1ccccc1)/COc1ccccc1C(N1CCOCC1)n1nc2ccccc2n1` (stereo not given), the TGI in [1] was 13.8 µM; in assay [2] it was 10.7 µM; in assay [3], more than 100 µM; in assay [4], 43.8 µM; in assay [5], 28.7 µM; in assay [6], 15.8 µM. Besides, the TGI in assay [7] is 81.1 µM; in assay [8], 49.3 µM; in assay [9] it was 10.9 µM; in assay [10] it was 36.5 µM.
On to `O=C1c2cccc(O)c2C(=O)c2c(OC3OC(CO)C(O)C(O)C3O)cccc21` (stereo not given), for which the TGI in [1] is 36 µM; in assay [2], more than 100 µM; in [3], more than 100 µM; in [4] it was 49.1 µM; in [5] it was more than 100 µM; in assay [6], more than 100 µM. Moreover, the TGI is more than 100 µM in [7], 40.5 µM in [8], 82 µM in [9] and more than 100 µM in assay [10].
